Earlier results as cited in patent US5185366A, “Method for treatment and prevention of diseases caused by enveloped viruses, including herpes simplex virus types 1 and 2 diseases, using 3,4-dihydroxy-2H-benzopyran-2H-one” (Ohio State University Research Foundation, priority 1990, dated 1993).

What was measured:
HBV DNA polymerase = conditions: 5-250 μg/mL, Kessler et al.; cited from earlier work
hepatitis B virus (HBV) = conditions: 5-250 μg/mL, Kessler et al.; cited from earlier work

C[C@@H]1[C@H](O)[C@@H](C)/C=C/C=C/C=C/C=C/C=C/C=C/C=C/[C@H](O[C@@H]2O[C@H](C)[C@@H](O)[C@H](N)[C@@H]2O)C[C@@H]2O[C@](O)(C[C@@H](O)C[C@@H](O)[C@H](O)CC[C@@H](O)C[C@@H](O)CC(=O)O[C@H]1C)C[C@H](O)[C@H]2C(=O)O [amphotericin B]
HBV DNA polymerase activity (HBV DNA polymerase): concentration dependent increase in HBV DNA polymerase activity
effect on HBV particle / envelope (hepatitis B virus (HBV)): changes in electron microscopic appearance of the virus, increased penetration of negative stain into the lipid envelope, disruption of the particle
increase in density of HBV (hepatitis B virus (HBV)): 1.165 to 1.225 g/mL
